Reference: patent publication US11994513B2, “Diagnostic and prognostic methods for estrogen-induced cancers” (The University of Newcastle, priority 2018, dated 2024)

Tests used:
ALPPL2 mRNA expression = test: Quantitative real-time PCR of ALPPL2 mRNA in hormone-treated Ishikawa organoids; type: cell-based, human; details: FIG. 2C
Experimental: (§1) 5,000 Ishikawa cells/well were seeded in triplicate in 100 μL medium onto 96-well tissue culture plates coated with a thin layer of reduced growth factor basement membrane extract (Cultrex® RGF BME: Trevigen) and were allowed to form organoids. After 24 hours, the organoids were subjected to desired hormonal treatments: 10 nmol/L estrogen ((β-Estradiol, Sigma #E8875) and 100 nmol/L progesterone (Medroxyprogesterone 17-acetate, Sigma #M1629). The culture medium containing desired hormone concentration was changed on every 48 hours. On day 7, colony size was measured and images were photographed using JuLI™ Stage Real-Time Cell History Recorder (NanoEnTek) in an incubator at 37° C. humidified with 5% CO2. 72 hours post-treatment, cells were incubated with CellTiter-Glo® 3D Reagent (Promega) for 30 minutes at room temperature and luminescence signal was recorded using the FLUOstar OPTIMA (BMG Labtech). […]
Total RNA was isolated from estrogen or progesterone treated mouse uterus and Ishikawa cells using RNeasy Mini kit (Qiagen) following manufacturer's instructions. […] Quantitative real-time PCR (Q-PCR) was performed using RT^2 SYBR Green ROX qPCR Mastermix (Qiagen) on a 7900 HT FAST Thermocycler (Applied Biosystems) through a pre-incubation step, and 40 amplification cycles (including denaturation, annealing and extension segments). […]

Ishikawa organoids = test: 3D organoid formation assay: colony size and proliferation (CellTiter-Glo 3D); type: cell-based, human
Experimental: The human endometrial adenocarcinoma cell line Ishikawa (Sigma #99040201) was cultured in MEM (HyClone) medium supplemented with 5% heat-inactivated FBS (Bovogen Biologicals), 2 mmol/L L-glutamine (HyClone), and antibiotics (50 U/mL penicillin, 50 mg/L streptomycin; Gibco) in a humidified atmosphere at 37° C. containing 5% CO2. Cell line authentication was done by short tandem repeat (STR) DNA profiling method and mycoplasma contamination in cells was routinely conducted using MycoAlert™ Plus Mycoplasma detection kit (Lonza). 5,000 Ishikawa cells/well were seeded in triplicate in 100 μL medium onto 96-well tissue culture plates coated with a thin layer of reduced growth factor basement membrane extract (Cultrex® RGF BME: Trevigen) and were allowed to form organoids. After 24 hours, the organoids were subjected to desired hormonal treatments: 10 nmol/L estrogen ((β-Estradiol, Sigma #E8875) and 100 nmol/L progesterone (Medroxyprogesterone 17-acetate, Sigma #M1629). The culture medium containing desired hormone concentration was changed on every 48 hours. On day 7, colony size was measured and images were photographed using JuLI™ Stage Real-Time Cell History Recorder (NanoEnTek) in an incubator at 37° C. humidified with 5% CO2. 72 hours post-treatment, cells were incubated with CellTiter-Glo® 3D Reagent (Promega) for 30 minutes at room temperature and luminescence signal was recorded using the FLUOstar OPTIMA (BMG Labtech). Ishikawa 3D organoids were fixed in 4% paraformaldehyde (Electron Microscopy Sciences, ProSciTech) for 20 minutes and processed for immunofluorescence, as described previously (Sahoo et al, Oncotarget, 2017, 8:71400-17).

mice uteri = test: Hormone pellet treatment of ovariectomized mice: uterine histology and ALPPL2 immunohistochemistry; type: in vivo, C57BL/6 mice
ALPPL2 protein = test: Western blot of ALPPL2 protein in hormone-treated Ishikawa cells and organoids; type: cell-based, human; details: Ishikawa cells and organoids treated with E2 and/or P4, FIGS. 2D and 2E
Experimental: as §1
Human endometrial cancer samples, mouse uterine tissue, and Ishikawa cells were lysed in ice-cold RIPA (radioimmunoprecipitation assay) buffer (50 mmol/L Tris-HCl pH 7.5, 150 mmol/L NaCl, 1% NP-40, 0.5% Sodium deoxycholate, 0.1% SDS) containing protease and phosphatase inhibitors (Sigma). […] The membrane was washed again in TBS-T, developed using a chemiluminescent substrate (Millipore) for detection of HRP and the protein bands were detected by chemiluminescence (Fujifilm LAS-4000). […]

| Compound | effect on E2-induced ALPPL2 mRNA upregulation (ALPPL2 mRNA expression; P4 100 nmol/L with E2 10 nmol/L) | mitogenic action of E2 on Ishikawa organoids (size and proliferation) (Ishikawa organoids; P4 100 nmol/L with E2 10 nmol/L, FIGS. 2A and 2B) | effect on E2-induced ALPPL2 expression in uterus (immunohistochemical analysis) (mice uteri; E2 and P4 pellets for 3 months, FIG. 3A) | ALPPL2 mRNA expression (ALPPL2 mRNA expression; E2 treated organoids, 10 nmol/L) | ALPPL2 protein expression (western blot, total cell lysate) (ALPPL2 protein) | proliferation of Ishikawa organoids (Ishikawa organoids; E2 10 nmol/L, 3D culture, 72 hours post-treatment, FIG. 2B) | size of Ishikawa organoids (Ishikawa organoids; E2 10 nmol/L, 3D culture, day 7, FIG. 2A) | ALPPL2 expression in uterus (immunohistochemical analysis) (mice uteri; E2 pellet for 3 months, FIG. 3A) | endometrial hyperplasia (histological analysis) (mice uteri; E2 pellet for 3 months, compared to E2 and P4 treated uteri, data not shown) |
| --- | --- | --- | --- | --- | --- | --- | --- | --- | --- |
| CC(=O)[C@H]1CC[C@H]2[C@@H]3CCC4=CC(=O)CC[C@]4(C)[C@H]3CC[C@]12C [P4, progesterone] | inhibited this effect | counterbalanced | attenuated the effect of E2 | – | – | – | – | – | – |
| β-Estradiol [E2] | – | – | – | significantly upregulated | Overexpression of ALPPL2 | increased | increased | increase in ALPPL2 expression | increased endometrial hyperplasia |
